The values below come from patent publication US20230067929A1, “HETEROCYCLIC DERIVATIVES, PHARMACEUTICAL COMPOSITIONS AND THEIR USE IN THE TREATMENT, AMELIORATION OR PREVENTION OF CANCER” (Tolremo Therapeutics AG, priority 2018, published 2023).

pEC50: −log10 of the molar value.

In the assay the test system is A375 cells. In words: A375 cell immunofluorescence assay (with 1 μM S1152 and 0.5 μM S1008), EC50. It is filed as cell-based. To be noted: 1 μM S1152 + 0.5 μM S1008, one day, ratio FL2/FL3 staining (sc-365823 antibody). Here is the method:
One thousand four hundred A375 cells were seeded in each well of a 384 well microplate. One day later they were treated with 1 μM S1152 (Selleckchem) in dimethyl sulfoxide, 0.5 μM S1008 (Selleckchem) and dose ranges of invention compounds for one day in Dulbecco's Modified Eagle's Medium supplemented with 10% fetal calf serum and 2 mM (2S)-2-amino-4-carbamoylbutanoic acid. Wells were incubated with 4% polyoxymethylene (Sigma Aldrich 158127) at ambient temperature. After ten minutes, polyoxymethylene was replaced with phosphate-buffered saline. After one minute phosphate-buffered saline was replaced with 0.2% polyethylene glycol octylphenyl ether in phosphate-buffered saline. After ten minutes at ambient temperature 0.2% polyethylene glycol octylphenyl ether in phosphate-buffered saline was replaced with 1% aminoethanoic acid in phosphate-buffered saline. […] After one hour at 37° C., the solution was replaced with phosphate-buffered saline twice. Phosphate-buffered saline was replaced with 2 μg/ml A-11029 (Invitrogen) in 0.05% polyoxyethylene (20) sorbitan monolaurate in phosphate-buffered saline. […] After one hour at ambient temperature in the dark, signal in wells was measured with a Acumen Cellista. 3,8-Diamino-5-[3-(diethylmethylammonio)propyl]-6-phenylphenanthridinium diiodide-positive objects were defined in FL3 (565-600 nm) with a perimeter between 50-800 μm and a total intensity of 10000-1000000 FLU. Signal in FL2 (500-530 nm) was measured in defined objects. A normalized ratio of total ln FL2 over total ln FL3 staining was log transformed. A non-linear regression (variable slope, 4 parameters) was used to calculate EC50 values using GraphPad Prism (Version 7.0d).
`C#Cc1cc(Nc2cccc(F)c2)nc(C2CCCN(C(C)=O)C2)n1` (centres unmarked): the pEC50 was below 5.00.
Regarding `CC(=O)N1CCCC(c2nc(Nc3cccc(F)c3)cc(-c3cncc(C(F)F)c3)n2)C1` (centres unmarked), the pEC50 is above 6.00.
To `CC(=O)N1CCCC(c2nc(Nc3cccc(F)c3)cc(-c3cncc4cc[nH]c34)n2)C1` (centres unmarked) belongs below 5.00.
The result for `CCC(=O)N1CCCC(c2nc(Nc3cccc(F)c3)cc(-c3cccc(NC(C)=O)c3)n2)C1` (centres unmarked) reads 5.00 to 6.00; that for `CC(=O)N1CC(C)CC(c2nc(Nc3cccc(F)c3)cc(-c3cccnc3)n2)C1` (centres unmarked), above 6.00; that for `CC(=O)N1C[C@H](c2nc(Nc3cccc(F)c3)cc(-c3cccnc3)n2)CC[C@@H]1C`, above 6.00.
With `CCC(=O)N1CCCC(c2nc(Nc3cccc(F)c3)cc(-c3cncc(OC)c3)n2)C1` (centres unmarked), the pEC50 was 5.00 to 6.00.
For the compound `CCC(=O)N1CCCC(c2nc(Nc3cccc(F)c3)cc(C3CCOCC3)n2)C1` (centres unmarked), the negative logarithm of the EC50 (pEC50) is below 5.00.
On to `CC(=O)N1CC(O)CC(c2nc(Nc3cccc(F)c3)cc(-c3cccnc3)n2)C1` (centres unmarked), for which the pEC50 was 5.00 to 6.00.
The result for `CCC(=O)N1CCCC(c2nc(Nc3cccc(F)c3)cc(-c3cnc(OC(C)C)s3)n2)C1` (centres unmarked) reads below 5.00.
The result for `CN1CC(c2nc(Nc3cccc(F)c3)cc(-c3cccnc3)n2)CC1=O` (centres unmarked) reads below 5.00; that for `CC(=O)N1CCCC(c2nc(Nc3cccc(C)c3)cc(-c3cncc(-c4nccs4)c3)n2)C1` (centres unmarked), above 6.00.
To `CC(=O)N1CCCC(c2nc(Nc3cccnc3)cc(-c3cncc4[nH]ccc34)n2)C1` (centres unmarked) belongs below 5.00; to `CC(=O)N1CCCC(c2nc(Nc3cccc(F)c3)cc(-c3csc4cnccc34)n2)C1` (centres unmarked), below 5.00; to `CC(=O)N1CCCC(c2nc(Nc3cccc(F)c3)cc(-c3cnc4[nH]ccc4c3)n2)C1` (centres unmarked), 5.00 to 6.00.
For the compound `CC(=O)N1CCCC(c2nc(Nc3cccc(F)c3)cc(-c3cncc(C(=O)N4CCS(=O)(=O)CC4)c3)n2)C1` (centres unmarked), the pEC50 was below 5.00.
Regarding `CC(=O)N1CCC[C@H](c2nc(Nc3cccc(F)c3)cc(-c3cccnc3)n2)C1`, the negative-log EC50 (pEC50) was below 5.00.
On to `CC(=O)N1CCCC(c2nc(Nc3cccc(F)c3)cc(NC3CCCOC3)n2)C1` (centres unmarked), for which the pEC50 is 5.00 to 6.00.
The result for `CC(=O)N1CCCC(c2nc(Nc3ccccc3)cc(-c3cccnc3)n2)C1` (centres unmarked) reads 5.00 to 6.00; that for `CCC(=O)N1CCCC(c2nc(Oc3cccc(F)c3)cc(-c3cccnc3)n2)C1` (centres unmarked), below 5.00; that for `CC(=O)N1C[C@H](c2nc(Nc3cccc(F)c3)cc(-c3cncc(O)c3)n2)CC[C@@H]1C`, above 6.00.
With `CCC(=O)N1CCCC(c2nc(Nc3cccc(F)c3)cc(-c3ccc(C(=O)NC)nc3)n2)C1` (centres unmarked), the negative logarithm of the EC50 (pEC50) is below 5.00.
The result for `COc1csc(-c2cc(Nc3cccc(F)c3)nc(C3CCCN(C(C)=O)C3)n2)c1` (centres unmarked) reads above 6.00; that for `CCC(=O)N1CCCC(c2nc(NC3CCCCC3)cc(-c3cccnc3)n2)C1` (centres unmarked), below 5.00; that for `CC(=O)N1CC(c2nc(Nc3cccc(F)c3)cc(-c3cccnc3)n2)CC(C)C1C` (centres unmarked), above 6.00.
As to `CCC(=O)N1CCCC(c2nc(Nc3cc(OC)cc(OC)c3)cc(-c3cccnc3)n2)C1` (centres unmarked), the pEC50 is 5.00 to 6.00.
The result for `CC(=O)N1CCN(c2cncc(-c3cc(Nc4cccc(F)c4)nc(C4CCCN(C(C)=O)C4)n3)c2)CC1` (centres unmarked) reads 5.00 to 6.00.
`CC(=O)N1CCCC(c2nc(Nc3ccc4c(c3)CCC4)cc(-c3cccnc3)n2)C1` (centres unmarked): the negative-log EC50 (pEC50) is below 5.00.
As for `CC(=O)N1C[C@H](c2nc(Nc3cncc(C)c3)cc(-c3cccnc3)n2)CC[C@@H]1C`, the pEC50 was above 6.00.
For the compound `CC(=O)N1CCCC(c2nc(Nc3cccc(F)c3)cc(-c3cnn(CC(F)(F)F)c3)n2)C1` (centres unmarked), the pEC50 is 5.00 to 6.00.
The result for `CC(=O)N1CCCC(c2nc(Nc3cccc(C)c3)cc(-c3cncc4[nH]ccc34)n2)C1` (centres unmarked) reads above 6.00; that for `CC(=O)N1CCCC(c2nc(Nc3cccc(F)c3)cc(-c3cncc(C)c3)n2)C1` (centres unmarked), above 6.00.
The result for `COCCOCCOCC(=O)N1CCCC(c2nc(Nc3cccc(F)c3)cc(-c3cccnc3)n2)C1` (centres unmarked) reads below 5.00; that for `CCC(=O)N1CCCC(c2nc(Nc3cccc(F)c3)cc(-c3cccc(C#N)c3)n2)C1` (centres unmarked), 5.00 to 6.00.
Consider `CNC(=O)c1ccc(-c2cc(Nc3cccc(F)c3)nc(C3CCCN(C(C)=O)C3)n2)cc1` (centres unmarked), for which the pEC50 was 5.00 to 6.00.
The result for `CC(=O)N1CCCC(c2nc(Nc3cccc(F)c3)cc(-c3cncc(C(=O)O)c3)n2)C1` (centres unmarked) reads below 5.00.
On to `[2H]C([2H])([2H])C(=O)N1CCCC(c2nc(Nc3cccc(F)c3)cc(-c3cccnc3)n2)C1` (centres unmarked), for which the pEC50 was above 6.00.
To `CC(=O)N1CCCC(c2nc(Nc3ccncn3)cc(-c3cccnc3)n2)C1` (centres unmarked) belongs below 5.00; to `CCC(=O)N1CCC[C@@H](c2nc(Nc3cccc(F)c3)cc(-c3cccnc3)n2)C1`, 5.00 to 6.00; to `CC(=O)N1CCCC(c2nc(Nc3cccc(C)c3)cc(-c3cccnc3)n2)C1` (centres unmarked), above 6.00.
For the compound `CC(=O)N1CCCC(c2nc(Nc3ccccn3)cc(-c3cccnc3)n2)C1` (centres unmarked), the pEC50 is below 5.00.
The result for `CC(=O)N1CC(c2nc(Nc3cccc(F)c3)cc(-c3cccnc3)n2)CCC1(C)C` (centres unmarked) reads below 5.00; that for `CCC(=O)N1CCCC(c2nc(Nc3cccc(F)c3)cc(-c3cncc(C)c3)n2)C1` (centres unmarked), 5.00 to 6.00.
The result for `CCC(=O)N1CCCC(c2nc(Nc3cccc(F)c3)cc(NC3CC3)n2)C1` (centres unmarked) reads below 5.00; that for `CN1CCCC(c2nc(Nc3cccc(F)c3)cc(-c3cccnc3)n2)C1` (centres unmarked), below 5.00.
On to `CC(=O)N1CCCC(c2nc(Nc3cncc(F)c3)cc(-c3cccnc3)n2)C1` (centres unmarked), for which the pEC50 is 5.00 to 6.00.
Regarding `CC(=O)N1CCCC(c2nc(Nc3cccc(F)c3)cc(-c3ccc(C)nc3)n2)C1` (centres unmarked), the pEC50 was 5.00 to 6.00.
Turning to `CC(=O)N1CCCC(c2cc(Nc3cccc(F)c3)nc(-c3cccnc3)n2)C1` (centres unmarked), the negative logarithm of the EC50 (pEC50) is 5.00 to 6.00.
The result for `CC(=O)N1CC(c2nc(Nc3cccc(F)c3)cc(-c3cccnc3)n2)CC2CCCCC21` (centres unmarked) reads 5.00 to 6.00; that for `CC(=O)N1C[C@H](c2nc(Nc3cncc(C)c3)cc(-c3cncc(C)c3)n2)CC[C@@H]1C`, above 6.00; that for `CCC(=O)N1CCCC(c2nc(NC3CCCC3)cc(-c3cccnc3)n2)C1` (centres unmarked), below 5.00.
The result for `CCC(=O)N1CCCC(c2nc(Nc3cccc(F)c3)cc(-c3cnccc3OC)n2)C1` (centres unmarked) reads 5.00 to 6.00.
As for `CCC(=O)N1CCCC(c2nc(Nc3ccc(OC)nc3)cc(-c3cccnc3)n2)C1` (centres unmarked), the pEC50 is below 5.00.
The result for `COc1cncc(-c2cc(Nc3ccc(OCCOCCOCCNC(C)=O)cc3)nc(C3CCCN(C(C)=O)C3)n2)c1` (centres unmarked) reads below 5.00; that for `CCC(=O)N1CCCC(c2nc(Nc3cccc(F)c3)cc(-c3ccc4ocnc4c3)n2)C1` (centres unmarked), below 5.00.
To `Fc1cccc(Nc2cc(-c3cccnc3)nc(C3CCCNC3)n2)c1` (centres unmarked) belongs below 5.00; to `CC(=O)N1CCCC(c2nc(Nc3cccc(F)c3)cc(-c3cncc(C4COC4)c3)n2)C1` (centres unmarked), above 6.00.
The result for `CC(=O)N1CC(c2nc(Nc3cccc(F)c3)cc(-c3cccnc3)n2)CCC1c1ccccc1` (centres unmarked) reads below 5.00; that for `O=C1CCC2CCC(c3nc(Nc4cccc(F)c4)cc(-c4cccnc4)n3)CN12` (centres unmarked), below 5.00; that for `CCC(=O)N1CCCC(c2nc(Nc3ccc(OC)cc3)cc(-c3cccnc3)n2)C1` (centres unmarked), 5.00 to 6.00.
As to `CCC(=O)N1CCC[C@H](c2nc(Nc3cccc(F)c3)cc(-c3cccnc3)n2)C1`, the pEC50 was below 5.00.
The result for `CC(=O)N1CCCC(c2nc(Nc3cccc(C)c3)cc(-c3cncnc3)n2)C1` (centres unmarked) reads 5.00 to 6.00.
The result for `COC(=O)c1cncc(-c2cc(Nc3cccc(F)c3)nc(C3CCCN(C(C)=O)C3)n2)c1` (centres unmarked) reads below 5.00; that for `CC(=O)N1CCCC(c2nc(Nc3cncc(C)c3)cc(-c3cncnc3)n2)C1` (centres unmarked), 5.00 to 6.00.
To `CCC(=O)N1CCCC(c2nc(Nc3cccc(F)c3)cc(-c3cncc4[nH]ccc34)n2)C1` (centres unmarked) belongs below 5.00; to `CCCN1CCCC(c2nc(Nc3cccc(F)c3)cc(-c3cccnc3)n2)C1` (centres unmarked), below 5.00.
In the case of `CC(=O)N1CCCC(c2nc(Nc3cccc(F)c3)cc(-c3cccs3)n2)C1` (centres unmarked), the negative-log EC50 (pEC50) was 5.00 to 6.00.
To `CC(=O)N1CCCC(c2nc(Nc3ccccn3)cc(-c3cncc4[nH]ccc34)n2)C1` (centres unmarked) belongs 5.00 to 6.00; to `COc1cncc(-c2cc(Nc3cccc(C)c3)nc(C3CCCN(C(C)=O)C3)n2)c1` (centres unmarked), above 6.00; to `COc1cccc(-c2cc(Nc3cccc(F)c3)nc(C3CCCN(C(C)=O)C3)n2)c1` (centres unmarked), 5.00 to 6.00.
On to `CCC(=O)N1CCCC(c2nc(Nc3cccc(F)c3)cc(-c3ccc(OC)nc3)n2)C1` (centres unmarked), for which the pEC50 is below 5.00.
For the compound `COc1cncc(-c2cc(Nc3cccc(Cl)c3)nc(C3CCCN(C(C)=O)C3)n2)c1` (centres unmarked), the pEC50 was above 6.00.
Turning to `CC(=O)N1CCCC(c2nc(Nc3cccc(F)c3)cc(Nc3ccccn3)n2)C1` (centres unmarked), the pEC50 is 5.00 to 6.00.
For `CCC(=O)N1CCCC(c2nc(Nc3cccc(F)c3)cc(-c3ccccc3C(=O)NC)n2)C1` (centres unmarked), the pEC50 is below 5.00.
To `CC(=O)N1CC(c2cc(Nc3cccc(F)c3)cc(-c3cccnc3)n2)=CCC1C` (centres unmarked) belongs 5.00 to 6.00; to `CCC(=O)N1CCCC(c2nc(Nc3cccc(F)c3)cc(-c3cncc(C(=O)NC)c3)n2)C1` (centres unmarked), 5.00 to 6.00.
The result for `CC(=O)N1C[C@H](c2nc(Nc3cncc(C)c3)cc(Nc3ncccn3)n2)CC[C@@H]1C` reads above 6.00.
